Results published in patent publication US7696129B2, “Substituted aromatic amide derivative, intermediate thereof, agrohorticultural insecticide containing thereof and method for the use thereof” (Nihon Nohyaku Co., Ltd., priority 2001, dated 2010).

Tests used:
Assay type in all cases: in vivo
[1] = system: Smaller Tea Tortrix (Adxophyes sp.); assay: Test Example 3: insecticidal effect on smaller tea tortrix, tea leaf immersion; conditions: 50 ppm, tea leaves immersed about 30 seconds, larvae, 25° C., humidity 70%, eight days after the inoculation
Experimental: Insecticidal Effect on Smaller Tea Tortrix (Adxophyes sp.)
Tea leaves were immersed for about 30 seconds in a liquid chemical prepared by diluting a preparation containing each compound listed in Tables 1 to 3 as an active ingredient to adjust the concentration to 50 ppm. After air-dryness, the tea leaves were placed in a plastic Petri dish with a diameter of 9 cm and inoculated with larvae of smaller tea tortrix, after which the dish was allowed to stand in a room thermostatted at 25° C. and having a humidity of 70%. Eight days after the inoculation, the dead and alive were counted and the insecticidal effect was judged according to the criterion shown in Test Example 1. The test was carried out with triplicate groups of 10 insects.

[2] = system: Common Cutworm (Spodoptera litura); assay: Test Example 2: insecticidal effect on common cutworm, cabbage leaf immersion; conditions: 50 ppm, cabbage leaf immersed about 30 seconds, second-instar larvae, 25° C., eight days after the inoculation
Text: Insecticidal Effect on Common Cutworm (Spodoptera litura)
A piece of cabbage leaf (cultivar; Shikidori) was immersed for about 30 seconds in a liquid chemical prepared by diluting a preparation containing each compound listed in Tables 4 to 9 as an active ingredient to adjust the concentration to 50 ppm. After air-dryness, it was placed in a plastic Petri dish with a diameter of 9 cm and inoculated with second-instar larvae of common cutworm, after which the dish was closed and then allowed to stand in a room thermostatted at 25° C. Eight days after the inoculation, the dead and alive were counted. The mortality was calculated according to the following equation and the insecticidal effect was judged according to the criterion shown in Test Example 1. The test was carried out with triplicate groups of 10 insects.

[3] = system: Diamond Back Moth (Plutella xylostella); assay: Test Example 1: insecticidal effect on diamond back moth, immersion of Chinese cabbage seedling with eggs; conditions: 50 ppm, seedling with eggs immersed about 30 seconds, 25° C., six days after the immersion
Text: Insecticidal Effect on Diamond Back Moth (Plutella xylostella)
Adult diamond back moths were released and allowed to oviposit on a Chinese cabbage seedling. Two days after the release, the seedling having the eggs deposited thereon was immersed for about 30 seconds in a liquid chemical prepared by diluting a preparation containing each compound listed in Tables 4 to 9 as an active ingredient to adjust the concentration to 50 ppm. After air-dryness, it was allowed to stand in a room thermostatted at 25° C. Six days after the immersion, the hatched insects were counted. The mortality was calculated according to the following equation and the insecticidal effect was judged according to the criterion shown below. The test was carried out with triplicate groups of 10 insects.

SMILES | Test Example 3 (insecticidal effect, mortality criterion) [1] | Test Example 2 (insecticidal effect, mortality criterion) [2] | Test Example 1 (insecticidal effect, mortality criterion) [3]
Cc1cc(C(C(F)(F)F)C(F)(F)F)c(F)cc1NC(=O)c1cccc(I)c1C(=O)NC(C)C [5-62] | A (Mortality 100%) | A (Mortality 100%) | A (Mortality 100%)
Cc1cc(C(C(F)(F)F)C(F)(F)F)ccc1NC(=O)c1ncccc1C(=O)NC(C)C [7-1] | A (Mortality 100%) | E (Mortality 49% or less) | A (Mortality 100%)
CCN(CC)C(=O)OCC(C)NC(=O)c1c(C(=O)Nc2ccc(C(C(F)(F)F)C(F)(F)F)cc2C)cccc1C(F)(F)F (stereo not drawn) [5-44] | A (Mortality 100%) | A (Mortality 100%) | A (Mortality 100%)
CSCC(C)(C)NC(=O)c1c(I)cccc1C(=O)Nc1ccc(C(C(F)(F)F)C(F)(F)F)cc1Br [5-53] | A (Mortality 100%) | A (Mortality 100%) | A (Mortality 100%)
CSCC(C)(C)NC(=O)c1c(I)cccc1C(=O)Nc1c(C)cc(C(C(F)(F)F)C(F)(F)F)cc1C [5-68] | E (Mortality 49% or less) | E (Mortality 49% or less) | A (Mortality 100%)
CSCC(C)(C)NC(=O)c1c(I)cccc1C(=O)Nc1ccc(CC(F)(F)F)cc1F [5-3] | A (Mortality 100%) | A (Mortality 100%) | A (Mortality 100%)
CSCC(C)(C)NC(=O)c1c(I)cccc1C(=O)Nc1ccc(C(C(F)(F)F)C(F)(F)F)cc1C#N [5-57] | A (Mortality 100%) | A (Mortality 100%) | A (Mortality 100%)
CSCC(C)NC(=O)c1c(I)cccc1C(=O)Nc1ccc(C(C(F)(F)F)C(F)(F)F)cc1C (stereo not drawn) [5-39] | A (Mortality 100%) | A (Mortality 100%) | A (Mortality 100%)
CON=CC(C)(C)NC(=O)c1ccccc1C(=O)Nc1ccc(C(C(F)(F)F)C(F)(F)F)cc1C [5-12] | A (Mortality 100%) | E (Mortality 49% or less) | A (Mortality 100%)
C[S+]([O-])CC(C)(C)NC(=O)c1c(I)cccc1C(=O)Nc1ccc(C(C(F)(F)F)C(F)(F)F)cc1C(C)(C)C (stereo not drawn) [5-49] | E (Mortality 49% or less) | E (Mortality 49% or less) | A (Mortality 100%)
Cc1nc(C(C(F)(F)F)C(F)(F)F)ccc1NC(=O)c1cccc(I)c1C(=O)NC(C)C [8-10] | A (Mortality 100%) | A (Mortality 100%) | A (Mortality 100%)
Cc1nc(C(C(F)(F)F)C(F)(F)F)ccc1NC(=O)c1cccc([N+](=O)[O-])c1C(=O)NC(C)(C)C[S+](C)[O-] (stereo not drawn) [8-8] | E (Mortality 49% or less) | E (Mortality 49% or less) | A (Mortality 100%)
Cc1cc(C(C(F)(F)F)C(F)(F)F)ccc1NC(=O)c1cccc(I)c1C1=NC(C)(CS(C)(=O)=O)CO1 (stereo not drawn) [10-4] | E (Mortality 49% or less) | E (Mortality 49% or less) | A (Mortality 100%)
C[S+]([O-])CC(C)(C)NC(=O)c1c(I)cccc1C(=O)Nc1ccc(C(C(F)(F)F)C(F)(F)F)nc1Cl (stereo not drawn) [8-5] | A (Mortality 100%) | A (Mortality 100%) | A (Mortality 100%)
CSCC(C)(C)NC(=O)c1c(I)cccc1C(=O)Nc1cc(F)c(C(C(F)(F)F)C(F)(F)F)cc1C [5-63] | A (Mortality 100%) | A (Mortality 100%) | A (Mortality 100%)
Cc1nc(C(C(F)(F)F)C(F)(F)F)ccc1NC(=O)c1cccc(I)c1C(=O)NC(C)(C)CS(C)(=O)=O [8-13] | A (Mortality 100%) | A (Mortality 100%) | A (Mortality 100%)
CSCC(C)(C)NC(=O)c1c(I)cccc1C(=O)Nc1ccc(CC(F)(F)F)cc1Cl [5-4] | A (Mortality 100%) | A (Mortality 100%) | A (Mortality 100%)
Cc1ccc(CNC(=O)OCC(C)NC(=O)c2c(I)cccc2C(=O)Nc2ccc(C(C(F)(F)F)C(F)(F)F)cc2C)cc1 (stereo not drawn) [5-36] | A (Mortality 100%) | E (Mortality 49% or less) | A (Mortality 100%)
CON=CC(C)(C)NC(=O)c1c(Cl)cccc1C(=O)Nc1ccc(C(C(F)(F)F)C(F)(F)F)cc1C [5-18] | A (Mortality 100%) | A (Mortality 100%) | A (Mortality 100%)
Cc1cc(C(C(F)(F)F)C(F)(F)F)ccc1NC(=O)c1cccc(C(F)(F)F)c1C(=O)NC(C)(C)C[S+](C)[O-] (stereo not drawn) [5-42] | A (Mortality 100%) | A (Mortality 100%) | A (Mortality 100%)
CSCC(C)(C)NC(=O)c1c(I)cccc1C(=O)Nc1ccc(C(C(F)(F)F)C(F)(F)F)c(OC(C)C)c1 [5-70] | E (Mortality 49% or less) | E (Mortality 49% or less) | A (Mortality 100%)
CC(C)(CS(C)(=O)=O)NC(=O)c1c(I)cccc1C(=O)Nc1ccc(C(C(F)(F)F)C(F)(F)F)nc1 [8-3] | A (Mortality 100%) | E (Mortality 49% or less) | A (Mortality 100%)
CSCC(C)(C)NC(=O)c1c(I)cccc1C(=O)Nc1ccc(C(C(F)(F)F)C(F)(F)F)cc1C(C)(C)C [5-48] | E (Mortality 49% or less) | E (Mortality 49% or less) | A (Mortality 100%)
Cc1nc(C(C(F)(F)F)C(F)(F)F)ccc1NC(=O)c1cccc([N+](=O)[O-])c1C(=O)NC(C)(C)CS(C)(=O)=O [8-9] | E (Mortality 49% or less) | D (Mortality 79-50%) | A (Mortality 100%)
